Our source for the IC50 and Emax values is patent US20260137706A1, “METHODS OF TREATING INFLAMMATORY DISEASES” (INTERLINE THERAPEUTICS, INC., priority 2023, published 2026).

By IC50 is commonly meant the concentration that inhibits the measured activity by half.

Where only a bound is given, the exact number is not on record here.

For assay [1], the target named is T1, GST-RIPK2 fusion protein (human RIPK2, amino acids 1-310) (Homo sapiens, UniProt O43353).
T1 construct: made in house; host or cells: baculovirus infected Sf9 cells
The assay is described as follows: RIPK2 binding competition assay (TR-FRET, Tracer 199 displacement). The conditions noted are these: 10 nM Tracer 199, 1 nM GST-RIPK2, read-out: RIPK2 IC50. The source says: The ability of selected compounds of Formula (I) to inhibit the binding of an Alexa647-labelled ATP-competitive kinase inhibitor to a GST-RIPK2 fusion protein was quantified employing the TR-FRET-based RIPK2 binding competition assay as described in the following paragraphs.
Recombinant fusion protein of N-terminal Glutathione-S-Transferase (GST) and a fragment of human RIPK2 (amino acids 1-310 of accession number 043353), expressed in baculovirus infected Sf9 cells, purified via glutathione affinity chromatography, was used as GST-RIPK2 fusion protein. Tracer 199 from Life Technologies (catalogue no. PR9115B) was used as Alexa647-labelled ATP-competitive kinase inhibitor.
For the assay, 50 nL of a 100-fold concentrated solution of each test compound in DMSO was pipetted into either a black low volume 384-well microtiter plate or a black 1536-well microtiter plate (both Greiner Bio-One, Frickenhausen, Germany), 3 μL solution of Tracer 199 (16.7 nM=>final concentration in 5 μL assay volume is 10 nM) in aqueous assay buffer (25 mM Tris/HCl pH 7.5, 10 mM magnesium chloride (MgCl2), 5 mM β-glycerophosphate, 2.5 mM dithiothreitol (DTT), 0.5 mM ethylene glycol-bis(2-aminoethylether)-N,N,N′,N′-tetraacetic acid (EGTA), 0.5 mM sodium ortho-vanadate, 0.01% (w/v) bovine serum albumin (BSA), 0.005% (w/v) Pluronic F-127 (Sigma)) were added. Then the binding competition was started by the addition of 2 μL of a solution of the GST-RIPK2 fusion protein (2.5 nM=>final conc. in the 5 μL assay volume is 1 nM) and of Anti-GST-Tb (1.25 nM=>final conc. in the 5 μL assay volume is 0.5 nM), a Lumi4®—Tb cryptate-conjugated anti-GST antibody from PerkinElmer (catalogue no 61GSTTAH), in assay buffer.
The resulting mixture was incubated 45 min at 22° C. to allow the formation of a complex between the Tracer 199, the fusion protein and Anti-GST-Tb. Subsequently, the amount of this complex was evaluated by measurement of the resonance energy transfer from the Tb-cryptate to the Tracer 199. Therefore, the fluorescence emissions at 620 nm and 665 nm after excitation at 337 nm were measured in a TR-FRET reader, e.g. a Pherastar FS (BMG Labtechnologies, Offenburg, Germany) or a Viewlux (PerkinElmer). The ratio of the emissions at 665 nm and at 620 nm was taken as the measure of the amount of the complex. The data were normalized (assay reaction without inhibitor=0% activity, all other assay components but no GST-RIPK2 fusion protein=−100% activity).
Table A1 below lists IC50 values of selected compounds of Formula (I) measured in the RIPK2 binding competition assay.
In general terms: TR-FRET usually uses a lanthanide donor and a delayed reading to cut background.

The target of assay [2] is T2, binding of His-XIAP(BIR2)-avi fusion protein to GST-RIPK2 fusion protein (RIPK2/XIAP) (Homo sapiens, UniProt O43353).
T2 construct: made in house; host or cells: baculovirus infected Sf9 cells
The assay is described as follows: RIPK2-XIAP binding competition PPI assay (TR-FRET). The conditions noted are these: RIPK2/XIAP binding competition PPI assay; for Emax: Amax, read-out: PPI Amax bin; for IC50: read-out: PPI IC50 bin. In a few lines:
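Compounds (in DMSO, 100-fold stock) incubated 120 min at 23 °C with 1 nM GST-RIPK2 (aa 1-310) and 25 nM His-XIAP(BIR2 aa 152-231)-avi, plus anti-His-XL665 and anti-GST-Tb, in pH 7.5 Tris buffer. Read-out: 665/520 nm emission ratio. Normalized to no-inhibitor (0%) and 50 nM GSK583 (−100%); Amax binned A–D.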

The test system of assay [3] is NF-κB pathway (SEAP) in THP1-Dual cells. The assay is described as follows: THP-1 Dual cell SEAP assay (L18-MDP stimulated). In kind it is cell-based. The conditions noted are these: Homo sapiens, THP1-Dual, read-out: NF-κB THP1 IC50 bin. The essentials:
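IC50 values derive from non-linear regression of % inhibition, calculated against DMSO/L18-MDP-treated wells after media-only subtraction. NF-κB SEAP activity was read at OD 620-655 nm (QUANTI-Blue, 2 h, 37 °C) from supernatants of THP1-Dual cells. Cells had been compound-treated 30 min before overnight (20-24 h) stimulation with 10 ng/mL final L18-MDP.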

T2 sequence (O43353 1-310 limits assumed): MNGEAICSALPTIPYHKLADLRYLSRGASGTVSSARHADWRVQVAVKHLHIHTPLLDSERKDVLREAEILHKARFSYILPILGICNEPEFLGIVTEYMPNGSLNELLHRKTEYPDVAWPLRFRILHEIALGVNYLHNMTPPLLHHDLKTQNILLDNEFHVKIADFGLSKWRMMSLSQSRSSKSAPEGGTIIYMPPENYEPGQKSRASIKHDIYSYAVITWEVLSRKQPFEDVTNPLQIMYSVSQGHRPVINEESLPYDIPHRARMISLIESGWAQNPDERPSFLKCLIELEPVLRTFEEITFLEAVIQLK
T1 sequence (O43353 1-310): as the sequence (O43353 1-310 limits assumed) above

Turning to `CCCS(=O)(=O)Nc1cc(-c2cnc3cc(OC)c(S(=O)(=O)N4CCOCC4)cn23)cc(F)c1OC` [Example 162, N-(3-fluoro-2-methoxy-5-(7-methoxy-6-(morpholinosulfonyl)imidazo[1,2-a]pyridin-3-yl)phenyl)propane-1-sulfonamide], the IC50 in assay [1] fell in the range of 0.001 to 0.0025 µM; in assay [2] it was 0.001 to 0.0025 µM; in assay [3] it was 0.05 to 0.25 µM. Further, in assay [2], the Emax was 55 to 80%.

For `CC(C)(C)S(=O)(=O)c1cn2c(-c3cc(F)c(N)nc3F)cnc2cc1OCCn1cccn1` [Example 24, 5-(7-(2-(1H-pyrazol-1-yl)ethoxy)-6-(tert-butylsulfonyl)imidazo[1,2-a]pyridin-3-yl)-3,6-difluoropyridin-2-amine], the IC50 fell in the range of 0.0025 to 0.02 µM in assay [1], 0.0025 to 0.02 µM in assay [2] and 0.05 to 0.25 µM in assay [3]. In addition, the Emax in assay [2] is more than 80%.

For `C[C@H](O)COc1cc2ncc(-c3cc(Cl)c(N)nc3F)n2cc1S(=O)(=O)C(C)(C)C` [Example 169, (S)-1-((3-(6-amino-5-chloro-2-fluoropyridin-3-yl)-6-(tert-butylsulfonyl)imidazo[1,2-a]pyridin-7-yl)oxy)propan-2-ol], the IC50 is 0.001 to 0.0025 µM in assay [1], 0.001 to 0.0025 µM in assay [2] and 0.05 to 0.25 µM in assay [3]. Further, in assay [2], the Emax is more than 80%.

Take `COc1cc2ncc(-c3cc(NS(=O)(=O)c4cnn(C)c4)c(OC)c(OC)c3)n2cc1S(=O)(=O)C(C)(C)C` [Example 244, N-(5-(6-(tert-butylsulfonyl)-7-methoxyimidazo[1,2-a]pyridin-3-yl)-2,3-dimethoxyphenyl)-1-methyl-1H-pyrazole-4-sulfonamide]: the IC50 in assay [1] is 0.001 to 0.0025 µM; in assay [2], less than 0.001 µM; in assay [3] it was less than 0.05 µM. For the same compound, the Emax in assay [2] is more than 80%.

As for `COc1cc2ncc(-c3ccc4nc(N)n(C)c4c3)n2cc1S(=O)(=O)C(C)(C)C` [Example 100, 6-(6-(tert-butylsulfonyl)-7-methoxyimidazo[1,2-a]pyridin-3-yl)-1-methyl-1H-benzo[d]imidazol-2-amine], the IC50 was 0.0025 to 0.02 µM in assay [1], more than 0.02 µM in assay [2] and more than 1 µM in assay [3]. In addition, the Emax in assay [2] is less than 30%.

`CC(C)(C)S(=O)(=O)c1cn2c(-c3cc(F)c(N)nc3F)cnc2cc1OCC1COC1` [Example 32, 5-(6-(tert-butylsulfonyl)-7-(oxetan-3-ylmethoxy)imidazo[1,2-a]pyridin-3-yl)-3,6-difluoropyridin-2-amine]: the values for the 50% inhibitory concentration (IC50) in assay [1], in assay [2] and in assay [3] were 0.001 to 0.0025 µM, 0.0025 to 0.02 µM and 0.05 to 0.25 µM, respectively. Moreover, in assay [2], the Emax is more than 80%.

Take `CC(C)(C)S(=O)(=O)c1cn2c(-c3cc(F)c(N)nc3F)cnc2cc1OCC1(CO)COC1` [Example 49, (3-(((3-(6-amino-2,5-difluoropyridin-3-yl)-6-(tert-butylsulfonyl)imidazo[1,2-a]pyridin-7-yl)oxy)methyl)oxetan-3-yl)methanol]: the IC50 in assay [1] was 0.0025 to 0.02 µM; in assay [2], 0.0025 to 0.02 µM; in assay [3], 0.25 to 1 µM. For the same compound, in assay [2], the Emax is more than 80%.

On to `CC(C)(C)S(=O)(=O)c1cc2c(-c3cc(F)c(N)nc3F)cnn2cc1OCCO` [Example 14, 2-((3-(6-amino-2,5-difluoropyridin-3-yl)-5-(tert-butylsulfonyl)pyrazolo[1,5-a]pyridin-6-yl)oxy)ethan-1-ol], for which the IC50 was 0.001 to 0.0025 µM in assay [1], 0.001 to 0.0025 µM in assay [2] and 0.05 to 0.25 µM in assay [3]. The Emax in assay [2] is more than 80%.

As to `CC(C)(C)S(=O)(=O)c1cn2c(-c3cc(Cl)c(N)nc3F)cnc2cc1CCCO` [Example 257, 3-(3-(6-amino-5-chloro-2-fluoropyridin-3-yl)-6-(tert-butylsulfonyl)imidazo [1,2-a]pyridin-7-yl)propan-1-ol], the 50% inhibitory concentration (IC50) lay in the range of 0.0025 to 0.02 µM in assay [1], 0.0025 to 0.02 µM in assay [2] and 0.25 to 1 µM in assay [3]. In addition, in assay [2], the Emax was more than 80%.

In the case of `COc1cc2ncc(-c3cccc(NS(=O)(=O)C4(C)CC4)c3)n2cc1S(=O)(=O)C(C)(C)C` [Example 149, N-(3-(6-(tert-butylsulfonyl)-7-methoxyimidazo[1,2-a]pyridin-3-yl)phenyl)-1-methylcyclopropane-1-sulfonamide], the half-maximal inhibitory concentration (IC50) is 0.0025 to 0.02 µM in assay [1], 0.0025 to 0.02 µM in assay [2] and more than 1 µM in assay [3]. In addition, the Emax in assay [2] was more than 80%.

As to `Cn1cc(-c2cc3ncc(-c4cc(F)c(N)nc4F)n3cc2S(=O)(=O)C(C)(C)C)cn1` [Example 22, 5-(6-(tert-butylsulfonyl)-7-(1-methyl-1H-pyrazol-4-yl)imidazo[1,2-a]pyridin-3-yl)-3,6-difluoropyridin-2-amine], the IC50 lay in the range of 0.0025 to 0.02 µM in assay [1], 0.0025 to 0.02 µM in assay [2] and 0.25 to 1 µM in assay [3]. Further, in assay [2], the Emax is more than 80%.

Turning to `CC(C)(C)S(=O)(=O)c1cn2c(-c3cc4c(F)c[nH]c4nc3F)cnc2cc1OCCO` [Example 236, 2-((6-(tert-butylsulfonyl)-3-(3,6-difluoro-1H-pyrrolo[2,3-b]pyridin-5-yl)imidazo[1,2-a]pyridin-7-yl)oxy)ethan-1-ol], the IC50 in assay [1] was less than 0.001 µM; in assay [2], less than 0.001 µM; in assay [3], less than 0.05 µM. Further, the Emax in assay [2] is more than 80%.

Turning to `COc1c(F)cc(-c2cnc3cc(OCCO)c(S(=O)(=O)C(C)(C)C)cn23)cc1NS(C)(=O)=O` [Example 223, N-(5-(6-(tert-butylsulfonyl)-7-(2-hydroxyethoxy)imidazo [1,2-a]pyridin-3-yl)-3-fluoro-2-methoxyphenyl) methanesulfonamide], the IC50 in assay [1] was less than 0.001 µM; in assay [2], less than 0.001 µM; in assay [3], 0.05 to 0.25 µM. For the same compound, the Emax in assay [2] lay in the range of 55 to 80%.

Regarding `COc1cc2ncc(-c3cc(F)c(OC)c(NS(=O)(=O)c4cnc(O)nc4)c3)n2cc1S(=O)(=O)C(C)(C)C` [Example 248, N-(5-(6-(tert-butylsulfonyl)-7-methoxyimidazo[1,2-a]pyridin-3-yl)-3-fluoro-2-methoxyphenyl)-2-hydroxypyrimidine-5-sulfonamide], the IC50 in assay [1] is 0.0025 to 0.02 µM; in assay [2], 0.0025 to 0.02 µM; in assay [3] it was more than 1 µM. Besides, in assay [2], the Emax is 55 to 80%.

Regarding `CC(C)(C)S(=O)(=O)c1cn2c(-c3cc(F)c(N)nc3F)cnc2cc1OCC(O)CO` (stereo not shown) [Example 55, 3-((3-(6-amino-2,5-difluoropyridin-3-yl)-6-(tert-butylsulfonyl)imidazo[1,2-a]pyridin-7-yl)oxy)propane-1,2-diol], the figures for the 50% inhibitory concentration (IC50) in assay [1], in assay [2] and in assay [3] were 0.0025 to 0.02 µM, 0.0025 to 0.02 µM and 0.25 to 1 µM, respectively. In addition, the Emax in assay [2] is more than 80%.

For `COc1cc2ncc(-c3cc(F)c(N)nc3F)n2cc1S(=O)(=O)N1CCNCC1` [Example 164, 3,6-difluoro-5-(7-methoxy-6-(piperazin-1-ylsulfonyl)imidazo[1,2-a]pyridin-3-yl)pyridin-2-amine], the values for the IC50 in assay [1], in assay [2] and in assay [3] were more than 0.02 µM, more than 0.02 µM and more than 1 µM, respectively. Further, the Emax in assay [2] is more than 80%.
